From patent US11485728B2, “Small molecules for the treatment of autoimmune diseases and cancer” (Athos Therapeutics, Inc., priority 2020, dated 2022)

Columns and labels:
CYP2D6 = molecular target: T1, CYP2D6 (Homo sapiens, UniProt P10635); experiment: CYP-direct inhibition, CYP2D6; assay type: in vitro ADME; conditions: human liver microsome; substrate dextromethorphan; read-out: IC50 CYP-2D6
T1 construct: from tissue; host or cells: pooled human liver microsomes
Method: (§1) Many drugs inhibit cytochrome P450 enzymes to cause clinically significant changes in the pharmacokinetics of other drugs. In vitro cytochrome P450 inhibition, can provide crucial information in evaluating potential clinical drug-drug interactions and is useful for focusing in vivo tests to areas of concern. The cytochrome P450 inhibition assay was developed by preparing a working cocktail solution consisting of six probe substrates 10 μM ethoxy-resorufin (CYP1A2), 100 μM rosiglitazone (CYP2C8), 50 μM diclofenac (CYP2C9), 300 μM S-mephenytoin (CYP2C19), 50 μM dextromethorphan (CYP2D6), and 20 μM midazolam (CYP3A4). A mixture solution consists of 140 uL of 0.286 mg/mL of pooled human liver microsome working solution and 20 uL working solutions of test articles, standard control inhibitors, or positive control placebo and 20 uL of substrate cocktail mixture working solution was prepared. The mixture solution was pre-warm in a gentle shaking bath at 37±2° C. for 5 minutes. The enzymatic reaction started by adding 20 uL of NRS working solution to the mixture solution and incubated for 10 minutes at 37±2° C. To stop the reaction, an addition of 400 μL cold stop solution (acetonitrile containing 50 ng/mL Tolbutamide as an internal standard (I.Std.) was added to the mixture solution. The final concentration of test article, inhibitors, substrates, and cofactors are noted in Table 0.1 below. Two individual samples were prepared for each test compound. The extracted samples were vortexed and then centrifuged at 4500 rpm for 7 minutes using Eppendorf Centrifuge 5910R. 200 uL of supernatant was diluting with 200 uL of 50% Methanol into 96-DW plate for LC/MS/MS analysis
(§2) Concentration-response plots are used to determine the effects of an inhibitor on an enzymatic reaction. A typical concentration-response plot provides fractional activity (Y axis) is plotted as a function of log inhibitor concentration (X axis). The data are fitted using a standard Sigmoidal dose-response equation which is also called a […] logistic equation. The concentration of compound that results in 50% inhibition of maximal activity is termed as the IC50 (inhibitor concentration yielding 50% inhibition). IC50 value is calculated using Prism GraphPad software, version 9. […].
(§3) Cytochrome P450 inhibition of a drug is a key factor in determining pharmacokinetic drug-drug interactions. The objective of this study was to evaluate the inhibition potential of G9a inhibitors on six (6) major human cytochrome P450 enzymes, including CYP1A2, CYP2C8, CYP2C9, CYP2C19, CYP2D6, and CYP3A4. Inhibition was determined by using a substrate cocktail and analyzing the rate of specific metabolites formation. The cytochrome P450 inhibition assay was developed using a cocktail consisting of six (6) probe substrates ethoxy-resorufin (CYP1A2), rosiglitazone (CYP2C8), diclofenac (CYP2C9), S-mephenytoin (CYP2C19), dextromethorphan (CYP2D6), and midazolam (CYP3A4). The cocktail was incubated in human liver microsome with NADPH regenerating system (NRS) in a shaking bath at 37±2° C. The formation of specific metabolites was monitored by LC/MS/MS. Test compound was added to the cocktail-liver microsome mixture at varying concentrations and its effect on cytochrome P450 activity was determined by analyzing the rate of specific metabolite formation. The percent inhibition was calculated and plotted with reference to the concentration, and the IC50 value for inhibition was derived by fitting the data with a using log(inhibitor) vs. normalized response with variable slope least squares fit by Graphpad Prism® software. […].

CYP3A4 = molecular target: T2, CYP3A4 (Homo sapiens, UniProt P08684); experiment: CYP-direct inhibition, CYP3A4; assay type: in vitro ADME
T2 construct: from tissue; host or cells: pooled human liver microsomes
T2 sequence (P08684 whole entry): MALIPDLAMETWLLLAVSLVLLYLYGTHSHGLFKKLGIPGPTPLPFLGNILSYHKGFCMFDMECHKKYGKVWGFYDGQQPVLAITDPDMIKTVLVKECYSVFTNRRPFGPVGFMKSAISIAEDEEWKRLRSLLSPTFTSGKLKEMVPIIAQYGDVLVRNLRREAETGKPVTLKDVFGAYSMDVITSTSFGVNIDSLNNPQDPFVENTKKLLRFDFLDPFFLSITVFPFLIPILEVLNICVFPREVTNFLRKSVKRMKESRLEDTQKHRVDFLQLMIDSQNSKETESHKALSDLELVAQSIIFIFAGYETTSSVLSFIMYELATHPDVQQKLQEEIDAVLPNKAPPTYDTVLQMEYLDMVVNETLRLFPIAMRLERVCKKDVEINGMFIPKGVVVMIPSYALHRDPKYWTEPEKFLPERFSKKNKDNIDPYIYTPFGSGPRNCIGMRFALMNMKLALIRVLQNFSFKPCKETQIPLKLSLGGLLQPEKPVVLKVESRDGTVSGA
Method: as §1, §2, §3

PAMPA permeability = conditions: PAMPA, 5 hours at RT
Source text: Parallel artificial membrane permeability (PAMPA) assay is a non-cell based assay designed to predict in vivo biological membrane permeability of drugs in early stage of drug discovery. […] The Corning Gentest Pre-coated PAMPA plate system was designed by 96-well insert system with a 0.45 μm PVDF (polyvinylidene fluoride) filter plate which has been pre-coated with structured tri-layers of phospholipids (lipid/oil/lipid) and a matched receiver microplate.
Donor solutions of test compounds (300 μL, 20 μM in PBS/MeOH 90:10) were added to each well of the donor plate. 200 μL of PBS/MeOH 90:10 was added to each well of the acceptor plate. The acceptor plate was coupled with the donor plate and incubated for 5 hours at room temperature (RT) without agitation. In each plate, compounds were tested in triplicate. At the end of the incubation, drug concentration in the initial donor solution, acceptor and the donor wells were determined using LC/MS/MS. A five (5) points standard curve from 0.1 to 1000 nM for each test compound were prepared. Analyte samples were diluted to within standard curve concentration with ACN/H2O 50:50 prior analysis.
All samples were analyzed by electrospray ionization (ESI) liquid chromatograph/mass spectrometry (LC/MS) system utilizing Sciex 5500 quadropule ion trap (Qtrap) mass spectrometry with Shidmazu Nexera X2 UHPLC. The LC-MS/MS instrument monitored each of the test compound in the study based of their respective mass-to-charge (m/z) transitions and MS parameters. Chromatographic separation was achieved on Phenomenex Luna C18 column (50×2.0 mm, 3 μm particle size) by using a gradient elution: mobile phase A contains 0.1% formic acid in water and mobile phase B contains 0.1% formic acid in acetonitrile; A/B (99:1) from 0 to 1 minutes; to A/B (1:99) from 1 to 4 minutes; A/B (1:99) from 4 to 8 minutes; to A/B (99:1) from 8 to 8.20 minutes; A/B (99:1) from 8.2 to 9 minutes. The flow rate was 0.4 mL/min and the column temperature was maintained at 35° C. and autosampler temperature at 4° C. For detection, the electrospray ionization operated in the positive mode using multiple reaction monitoring (MRM).
Data acquisition, and peak integrations were obtained by Analyst® Version 1.7.1 (Sciex) operating with Windows® (Microsoft). The standard curve regressions and sample concentrations were generated and calculated by Analyst®. Concentrations in the sample solutions were determined based on the measured peak area ratios from the response of the analyte to the internal standard with reference to the standard calibration curve. All sample calculations were calculated using a linear regression with 1/x^2 weighting (where x is the concentration of given calibration standard level).
Permeability of the test compounds was calculated using the following formula:
The permeability of compounds was evaluated with the parallel artificial membrane permeation assay (PAMPA) as an in vivo model of passive diffusion across a porous filter coated with a lipid/oil/lipid tri-layer artificial membrane. […] Donor solutions of test compounds (300 μL, 20 μM in PBS/MeOH 90:10) were added to each well of the donor plate. 200 μL of PBS/MeOH 90:10 was added to each well of the acceptor plate. The acceptor plate was coupled with the donor plate and incubated for 5 hours at room temperature (RT) without agitation. In each plate, compounds were tested in triplicate. At the end of the incubation, drug concentration in the initial donor solution, acceptor and the donor wells were determined using LC/MS/MS. Permeability of test compounds was calculated based on the formula described in the General Procedures above. The PAMPA permeability classification criteria are categorized into three (3) classes with a high (Pe≥1.5×10−6 cm/s), intermediate (5.5×10−8<Pe<1.5×10−6 cm/s), and low (Pe<5.5×10−8 cm/s) permeability.

[1] = In-vitro half-life in rat liver microsomes; assay type: in vitro ADME; conditions: Rat liver microsomes 0.5 mg/mL; 1 μg/mL drug; NRS; read-out: Metabolic Half-life
Method: In each of the species (human, rat, mouse) of liver matrix to be tested, a working concentration of 2 μg/mL was prepared of each test article from the 0.5 mg/mL DMSO stock solution by adding 3 μL of 0.5 mg/mL test article stock solution to 747 μL of the 1 mg/mL liver matrix. Incubation was performed at 37±2° C. with gentle, continuous mixing in shaking water bath in 2.0 mL-well capacity 96-Deepwell plates (96-DWP). Samples were retrieved in duplicate at the following time points: 0, 5, 10, 15, 30 and 60 minutes. The final mixture contained 1 μg/mL of drug and 0.5 mg/mL of liver matrix. First, 50 μL of test articles in liver matrix was added to the 96-DWP and pre-warmed the mixture in the 96-DWP for 2 minutes in the 37° C. water bath. The enzymatic reaction was started by the addition of 50 μL of the corresponding 2× NADPH regenerating system (NRS) cofactor solution to all sample wells and stopped by the addition of 300 μL of stop solution (acetonitrile containing 10 ng/mL Tolbutamide as an internal standard (I.Std.). The samples were agitated for 10 minutes and then centrifuged for 20 minutes at 4500 rpm. 25 μL of supernatant was diluted with 475 μL acetonitrile containing I. Std. into a new 96-DWPs for LC-MS/MS analysis.
Half-life calculations were generated and calculated by Graphpad Prism® software. The half-life of test compound was calculated based on the first-order reaction kinetics. The data was transformed to linear regression (y=log(y) where “y” axis represents the % compound remaining at any given time with respect to time 0 minutes; “x” axis represents time in minutes) in order to calculate the half-life.
A comparison of metabolic stability in time-course incubation experiments in varying species of liver can provide information of pharmacokinetic properties of drugs attributable to species-related differences in hepatic metabolism. The results of these experiments often assist in further applications such as assessing in vitro metabolite profiling and choosing relevant species for toxicology studies based on similarities relative to the metabolic stability to the human profile. For these experiments, the test compound was tested in parallel with a positive control, Dasatinab, in an enzymatic reaction solution of each species (human and rat) of liver microsomes containing a NADPH regenerating system (NRS). The final mixture contained 1 μg/mL of drug and 0.5 mg/mL of liver matrix. Incubations were performed at 37±2° C. with gentle, continuous mixing in shaking water bath in 96-Deep well plates. The stability of the test compound is monitored using fast, specific and sensitive LC/MS/MS analysis.

[2] = PAMPA permeability Classification, 20 μM donor
[3] = Permeability, Pe, 20 μM donor in PBS/MeOH 90:10

T1 sequence (P10635 whole entry): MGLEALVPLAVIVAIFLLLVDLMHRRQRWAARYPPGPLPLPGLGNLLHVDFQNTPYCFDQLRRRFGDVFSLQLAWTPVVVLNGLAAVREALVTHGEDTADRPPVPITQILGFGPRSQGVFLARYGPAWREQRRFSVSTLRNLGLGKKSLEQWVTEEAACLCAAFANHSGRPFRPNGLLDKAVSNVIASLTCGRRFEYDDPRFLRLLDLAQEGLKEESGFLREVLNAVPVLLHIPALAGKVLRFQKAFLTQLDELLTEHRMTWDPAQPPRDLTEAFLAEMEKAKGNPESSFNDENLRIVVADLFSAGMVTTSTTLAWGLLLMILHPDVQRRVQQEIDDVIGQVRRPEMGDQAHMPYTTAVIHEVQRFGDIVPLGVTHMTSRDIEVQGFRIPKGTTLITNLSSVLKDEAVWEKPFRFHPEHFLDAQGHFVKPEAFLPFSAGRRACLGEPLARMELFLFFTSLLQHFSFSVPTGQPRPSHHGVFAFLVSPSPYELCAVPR

Row | SMILES | IC50 (CYP2D6) [µM] | IC50 (CYP3A4) [µM] | Papp at 5 h, 20 μM (PAMPA permeability; [2]) [×10⁻⁶ cm/s] | Papp at 5 h, 20 μM (PAMPA permeability; [3]) [×10⁻⁶ cm/s] | half-life at 1 μg/mL [1] [min]
1 | COc1cc2c(NC3CCS(=O)(=O)CC3)nc(N3CCN(C)CC3)nc2cc1OCCCN1CCCC1 [Compound 109, 4-((6-methoxy-2-(4-methylpiperazin-1-yl)-7-(3-(pyrrolidin-1-yl)propoxy)quinazolin-4-yl)amino)tetrahydro-2H-thiopyran 1,1-dioxide] | > 100 | > 100 | < 0.055 | 0.00475 | > 60
2 | COc1cc2c(NC3CCS(=O)(=O)CC3)nc(N3CCCN(C)CC3)nc2cc1OCCCN1CCCC1 [Compound 110, 4-((6-methoxy-2-(4-methyl-1,4-diazepan-1-yl)-7-(3-(pyrrolidin-1-yl)propoxy)quinazolin-4-yl)amino)tetrahydro-2H-thiopyran 1,1-dioxide] | > 100 | > 100 | < 0.055 | 0.00676 | > 60
3 | COc1cc2c(Nc3ccncc3)nc(-n3ccnc3)nc2cc1OCCCN1CCCC1 [Compound 130, 2-(1H-imidazol-1-yl)-6-methoxy-N-(pyridin-4-yl)-7-(3-(pyrrolidin-1-yl)propoxy)quinazolin-4-amine] | 4.88 | 3.85 | < 0.055 | 0.0129 | > 60
4 | COc1cc2c(NC3CCN(C(C)C)CC3)nc(-n3ccnc3)nc2cc1OCCCN1CCCC1 [Compound 156, 2-(1H-imidazol-1-yl)-N-(1-isopropylpiperidin-4-yl)-6-methoxy-7-(3-(pyrrolidin-1-yl)propoxy)quinazolin-4-amine] | 4.72 | > 100 | < 0.055 | 0.00225 | > 60
5 | COc1cc2c(NC3CCN(C(C)C)CC3)nc(-n3cccn3)nc2cc1OCCCN1CCCC1 [Compound 157, N-(1-isopropylpiperidin-4-yl)-6-methoxy-2-(1H-pyrazol-1-yl)-7-(3-(pyrrolidin-1-yl)propoxy)quinazolin-4-amine] | 64.9 | > 100 | < 0.055 | 0.000555 | > 60
6 | COc1cc2c(N[C@H]3CCCNC3)nc(N3CCCC3)nc2cc1OCCCN1CCCC1 [Compound 158, (S)-6-methoxy-N-(piperidin-3-yl)-2-(pyrrolidin-1-yl)-7-(3-(pyrrolidin-1-yl)propoxy)quinazolin-4-amine] | 65.6 | > 100 | < 0.055 | 0.00453 | 33

More lines, now with the values ahead:

Row | IC50 (CYP2D6) [µM] | IC50 (CYP3A4) [µM] | Papp at 5 h, 20 μM (PAMPA permeability; [2]) [×10⁻⁶ cm/s] | Papp at 5 h, 20 μM (PAMPA permeability; [3]) [×10⁻⁶ cm/s] | half-life at 1 μg/mL [1] [min] | SMILES
7 | 50.9 | > 100 | < 0.055 | 0.0227 | 33.3 | COc1cc2c(N[C@@H]3CCCNC3)nc(N3CCCC3)nc2cc1OCCCN1CCCC1 [Compound 159, (R)-6-methoxy-N-(piperidin-3-yl)-2-(pyrrolidin-1-yl)-7-(3-(pyrrolidin-1-yl)propoxy)quinazolin-4-amine]
8 | 24.8 | > 100 | < 0.055 | 0.0476 | > 60 | COc1cc2c(NC3CCOCC3)nc(N3CCCC3)nc2cc1OCCCN1CCCC1 [Compound 164, 6-methoxy-2-(pyrrolidin-1-yl)-7-(3-(pyrrolidin-1-yl)propoxy)-N-(tetrahydro-2H-pyran-4-yl)quinazolin-4-amine]
9 | 23 | > 100 | 0.055 to 1.5 | 0.0754 | > 60 | COc1cc2c(NC3CCOCC3)nc(N3CCC3)nc2cc1OCCCN1CCCC1 [Compound 174, 2-(azetidin-1-yl)-6-methoxy-7-(3-(pyrrolidin-1-yl)propoxy)-N-(tetrahydro-2H-pyran-4-yl)quinazolin-4-amine]
10 | > 100 | > 100 | 0.055 to 1.5 | 0.238 | > 60 | COc1cc2c(NC3CCOCC3)nc(N3CCOCC3)nc2cc1OCCCN1CCCC1 [Compound 195, 6-methoxy-2-morpholino-7-(3-(pyrrolidin-1-yl)propoxy)-N-(tetrahydro-2H-pyran-4-yl)quinazolin-4-amine]
11 | 84.8 | > 100 | < 0.055 | 0.035 | > 60 | COc1cc2c(NC3CCOCC3)nc(N3CCS(=O)(=O)CC3)nc2cc1OCCCN1CCCC1 [Compound 196, 4-(6-methoxy-7-(3-(pyrrolidin-1-yl)propoxy)-4-((tetrahydro-2H-pyran-4-yl)amino)quinazolin-2-yl)thiomorpholine 1,1-dioxide]
12 | 77.9 | > 100 | < 0.055 | 0.000285 | > 60 | COc1cc2c(NC3CCN(C(C)C)CC3)nc(N3CCC3)nc2cc1OCCCN1CCCC1 [Compound 234, 2-(azetidin-1-yl)-N-(1-isopropylpiperidin-4-yl)-6-methoxy-7-(3-(pyrrolidin-1-yl)propoxy)quinazolin-4-amine]
13 | > 100 | > 100 | < 0.055 | 0.0046 | > 60 | COc1cc2c(NC3CCN(C(C)C)CC3)nc(C#N)nc2cc1OCCCN1CCCC1 [Compound 235, 4-((1-isopropylpiperidin-4-yl)amino)-6-methoxy-7-(3-(pyrrolidin-1-yl)propoxy)quinazoline-2-carbonitrile]
14 | > 100 | > 100 | < 0.055 | 0.0299 | > 60 | COc1cc2c(NC3CCOCC3)nc(N3CCN(C)CC3)nc2cc1OCCCN1CCCC1 [Compound 236, 6-methoxy-2-(4-methylpiperazin-1-yl)-7-(3-(pyrrolidin-1-yl)propoxy)-N-(tetrahydro-2H-pyran-4-yl)quinazolin-4-amine]
